Where two headings read alike, the source gives them in different places.
Tests used:
[1] = system: mast cells; assay: Phosphorylation and degranulation markers in antigen-stimulated mast cells grown with chronic SCF (FIG. 21); assay type: cell-based; conditions: 0.1-0.6 μM, antigen 15 minutes
Description: Histamine release, CD63 expression, CD203c expression, pBTK (Y223) levels, pP38 (T180/Y182) levels, pPLCg1 (S1248) levels, pERK (T202/Y204) levels, and pS6 (S235/236) levels are shown. Mast cells were grown with continuous (chronic) exposure to SCF and then stimulated with antigen (Ag) for 15 minutes, leading to phosphorylation of multiple kinases, including pBTK, pPLCγ1, pP38, pERK, and pS6 ribosome. This stimulation increases degranulation markers, including CD63, CD203c, and histamine release.

[2] = system: calcium influx in mast cell; assay: IgE-mediated calcium influx in ISM patient mast cells (FIG. 17); assay type: cell-based; conditions: presence of SCF
Description: Mast cell from an ISM patient was treated with Compound 128 at 50 mg, 75 mg, 100 mg, and 150 mg BID dose prior to antigen (Ag) stimulation. ISM 3-2 mast cell donor MC 1061-004 C1D8 D39. Experiments performed in the presence of SCF. […] Percent of Control (POC) based on Area-under-Curve above baseline (1st value).

[3] = system: human mast cells; assay: ISM-like mast cell chemotaxis towards conditioned media (Transwell); assay type: cell-based; conditions: ISM-like conditions, four healthy donors, treated two hours
Description: Human mast cells were differentiated from bone marrow CD34+ cells from four healthy donors as set forth in Example 4. Cells were used to produce conditioned media in ISM-like conditions. Conditioned media was the supernatant collected from mast cells cultured with stem cell factor (100 ng/mL), sensitized with NP-IgE (0.1 μg/mL) for 18 hours, treated with Compound 128 for two hours, and stimulated with NP-BSA (antigen; 0.1 μg/mL) for four hours. Migration of mast cells in the top chamber on Transwell […] inserts (Corning) towards the antigen-stimulated conditioned media in the bottom chamber was quantified after four hours using the CellTiter-Glo™ Luminescent Cell Viability Assay Kit (Promega). The amount of luminescence is correlated with live cell numbers. Fold change over the non-activated control was calculated.

[4] = biological target: BTK (Homo sapiens, UniProt Q06187); assay: BTK phosphorylation in mast cells (FIG. 19); assay type: cell-based; set-up: endogenous in cells
[5] = system: basophils; assay: Comparison of BTK inhibitors by BAT (CD63 and CD203c); assay type: cell-based, human; conditions: concentration of 1 μM; 2 hours; blood from a healthy donor
Description: (§1) The BAT assay using the Flow Cast Basophil Activation Kit (Buhlmann Diagnostics; Catalog #B-CCR-STCON) was then conducted following manufacturer instructions by (1) stimulating the blood with anti-FcεR stimulation control in stimulation buffer with IL-3 and staining cells for CCR3 and CD63 for 15 minutes at 37° C., (2) lysing red blood cells and fixing cells with Lysing Reagent at room temperature for 10 minutes, (3) washing cells with Wash Buffer, and (4) acquiring data on a flow cytometer. Activated basophils were defined as CCR3+, low side scatter and CD63+. Percent of activated basophils was calculated as number of activated basophils over the total number of basophils. A four-parameter logistic regression was applied to determine the EC50 and EC90.
Blood samples were gently rocked at room temperature for 2 hours. […] Activated basophils were also defined as CCR3+, low side scatter and CD203c+.

[6] = system: mast cells; assay: Degranulation of mast cells grown from CD34+ blood cells of ISM patients (FIG. 22); assay type: cell-based; conditions: absence of SCF at the time of stimulation
[7] = system: basophils; assay: BAT (CD63) on blood of dosed ISM patients; assay type: in vivo, human
Description: as §1, with “The BAT was conducted as set forth in Santos (2021) Allergy, 76:2420-2432. Blood from six healthy donors was drawn and Compound 128 was added at various concentrations (10 μM, 3.16 μM, 1 μM, 0.3 μM, 0.1 μM, 0.03 μM, or 0 μM). Blood samples were gently rocked at room temperature for 2 hours, 24 hours, or 48 hours. The” for “The”, “EC90. […]” for “EC90.”
The BAT assay measuring CD63 used the Flow Cast Basophil Activation Kit method and percent activated basophils were calculated as described in Example 1. Percent inhibition of CD63 activation was calculated as (100−(Sample condition−Unstimulated DMSO control)/(Stimulated DMSO control−Unstimulated DMSO control)×100).

[8] = system: mast cells; assay: Potency across healthy and ISM mast cells (FIG. 16); assay type: cell-based; conditions: presence of SCF; CD63, CD203, pBTK, histamine, calcium flux
Description: Healthy BM-MC donor 0166 and ISM WB-MC 1061-004 17 Jan. 2024 and 17 Oct. 2024. Experiments performed in the presence of SCF. Sensitization and Stimulation: NP-IgE (100 ng/mL) 18 hrs, NP-BSA (0.5 ng/mL) for 15 min at 37° C. (CD63, CD203, pBTK and histamine) or 4 min at RT (Calcium Flux).

[9] = system: basophils; assay: Basophil Activation Test (BAT), CD63, anti-FcεR stimulated blood from healthy donors; assay type: cell-based, human; conditions: for EC50: Homo sapiens
Description: as §1, with “The BAT was conducted as set forth in Santos (2021) Allergy, 76:2420-2432. Blood from six healthy donors was drawn and Compound 128 was added at various concentrations (10 μM, 3.16 μM, 1 μM, 0.3 μM, 0.1 μM, 0.03 μM, or 0 μM). Blood samples were gently rocked at room temperature for 2 hours, 24 hours, or 48 hours. The” for “The”

Chain of BTK (Q06187 whole entry): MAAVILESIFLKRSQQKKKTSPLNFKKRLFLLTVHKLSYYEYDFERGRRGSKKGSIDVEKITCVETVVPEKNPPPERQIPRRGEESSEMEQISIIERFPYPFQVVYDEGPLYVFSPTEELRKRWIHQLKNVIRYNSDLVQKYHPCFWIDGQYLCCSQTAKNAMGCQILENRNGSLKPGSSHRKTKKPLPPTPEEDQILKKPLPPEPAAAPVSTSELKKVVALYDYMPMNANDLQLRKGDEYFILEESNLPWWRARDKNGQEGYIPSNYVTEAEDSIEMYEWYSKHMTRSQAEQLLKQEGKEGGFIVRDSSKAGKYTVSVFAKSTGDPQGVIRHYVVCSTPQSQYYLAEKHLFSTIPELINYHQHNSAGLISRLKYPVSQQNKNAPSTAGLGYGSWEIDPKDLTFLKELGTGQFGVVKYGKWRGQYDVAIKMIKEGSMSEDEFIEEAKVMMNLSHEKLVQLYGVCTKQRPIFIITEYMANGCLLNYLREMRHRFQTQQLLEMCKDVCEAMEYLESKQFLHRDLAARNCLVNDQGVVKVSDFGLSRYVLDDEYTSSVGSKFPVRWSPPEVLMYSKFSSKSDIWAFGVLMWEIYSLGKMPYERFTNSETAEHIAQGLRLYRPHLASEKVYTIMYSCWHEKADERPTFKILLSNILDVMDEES

C=CC(=O)N1CCC(F)(CNc2ncnc(N)c2-c2ccc(Oc3ccccc3)cc2)CC1 [Compound 128, 1-(4-(((6-amino-5-(4-phenoxyphenyl)pyrimidin-4-yl)amino)methyl)-4-fluoropiperidin-1-yl)prop-2-en-1-one]
phosphorylation (pBTK, pPLCγ1, pP38, pERK, pS6) and degranulation (CD63, CD203c, histamine) [1]: decrease to near basal levels
inhibition of IgE-mediated calcium influx [2]: potently inhibits
chemoattractant activity of mast cells (chemotaxis towards conditioned media) [3]: inhibited
potency in inhibiting BTK phosphorylation in mast cells [4]: high potency
effect on basophil activation (CD63+, CD203c+) [5]: fully inhibits basophil activation
degranulation of ISM patient-derived mast cells [6]: inhibited
inhibition of basophil activation ([7]; ISM patients, 100 mg or 150 mg BID): effective in inhibiting basophil activation
percent inhibition of CD63 activation of basophils, dose dependence ([7]; ISM patients, 50, 75, 100 or 150 mg BID): greater inhibition of basophil activation is achieved in ISM patients with greater dosing
potency across healthy mast cells and ISM mast cells [8]: equipotent
EC50 ([9]; 2-hour drug exposure, blood from six healthy donors, read-out: average EC50, inhibition of anti-FcεR induced basophil activation (CD63+)): 0.5 µM
EC50 ([9]; 24-hour drug exposure, blood from six healthy donors, read-out: average EC50, inhibition of anti-FcεR induced basophil activation (CD63+)): 0.12 µM
EC50 ([9]; 48-hour drug exposure, blood from six healthy donors, read-out: average EC50, inhibition of anti-FcεR induced basophil activation (CD63+)): 0.1 µM
EC50 ([9]; 24 hours exposure, Example 2, read-out: average EC50 (n=4), CD63 normalized to DMSO control in CCR3+ basophils): 0.12 µM
potency increase of basophil activation inhibition ([9]; after 24 hours drug exposure): approximately 4 fold
